The text below walks through data of patent US10238658B2, “1-pyrazolyl-3-(4-((2-anilinopyrimidin-4-yl) oxy) napththalen-1-yl) ureas as p38 MAP kinase inhibitors” (Respivert Limited, priority 2011, dated 2019).

Experiment [1] has as its system ICAM-1. As to the kind of experiment: Rhinovirus-induced ICAM-1 expression in BEAS2B cells. It is filed as cell-based. The note with it: Homo sapiens, BEAS-2B, read-out: IC50 Values for HRV Stimulated Release/Expression ICAM1 (BEAS2B). The protocol:
Human rhinovirus RV16 was obtained from the American Type Culture Collection (Manassas, Va.). Viral stocks were generated by infecting Hela cells with HRV until 80% of the cells were cytopathic.
BEAS2B cells were infected with HRV at an MOI of 5 and incubated for 2 hr at 33° C. with gentle shaking for to promote absorption. The cells were then washed with PBS, fresh media added and the cells were incubated for a further 72 hr. The supernatant was collected for assay of IL-8 concentrations using a Duoset ELISA development kit (R&D systems, Minneapolis, Minn.).
The level of cell surface ICAM-1 expression was determined by cell-based ELISA. At 72 hr after infection, cells were fixed with 4% formaldehyde in PBS. After quenching endogenous peroxidase by adding 0.1% sodium azide and 1% hydrogen peroxide, wells were washed with wash-buffer (0.05% Tween in PBS: PBS-Tween). […] The ICAM-1 signal was detected by adding substrate and reading at 450 nm with a reference wavelength of 655 nm using a spectrophotometer. The wells were then washed with PBS-Tween and total cell numbers in each well were determined by reading absorbance at 595 nm after Crystal Violet staining and elution by 1% SDS solution. The measured OD450-655 readings were corrected for cell number by dividing with the OD595 reading in each well. […]

Experiment [2] concerns ICAM-1. As to the kind of experiment: Poly I:C-induced ICAM-1 expression in BEAS2B cells. To be noted: Homo sapiens, BEAS-2B, read-out: PolyIC/ICAM1 IC50 (BEAS2B). It counts as cell-based. The protocol: Poly I:C was used in these studies as a simple, RNA virus mimic. Poly I:C-Oligofectamine mixture (1 μg/mL Poly I:C, ±2% Oligofectamine, 25 μL; Invivogen Ltd., San Diego, Calif., and Invitrogen, Carlsbad, Calif., respectively) was transfected into BEAS2B cells (human bronchial epithelial cells, ATCC). Cells were pre-incubated with final concentrations of test compounds for 2 hr and the level of ICAM-1 expression on the cell surface was determined by cell-based ELISA. At a time point 18 hr after poly I:C transfection, cells were fixed with 4% formaldehyde in PBS (100 μL) and then endogenous peroxidase was quenched by the addition of washing buffer (100 μL, 0.05% Tween in PBS: PBS-Tween) containing 0.1% sodium azide and 1% hydrogen peroxide. Cells were washed with wash-buffer (3×200 μL). and after blocking the wells with 5% milk in PBS-Tween (100 μL) for 1 hr, the cells were incubated with anti-human ICAM-1 antibody (50 μL; Cell Signaling Technology, Danvers, Mass.) in 1% BSA PBS overnight at 4° C.
The cells were washed with PBS-Tween (3×200 μL) and incubated with the secondary antibody (100 μL; HRP-conjugated anti-rabbit IgG, Dako Ltd., Glostrup, Denmark). The cells were then incubated with of substrate (50 μL) for 2-20 min, followed by the addition of stop solution (50 μL, 1N H2SO4). The ICAM-1 signal was detected by reading […] the absorbance at 450 nm against a reference wavelength of 655 nm using a spectrophotometer. The cells were then washed with PBS-Tween (3×200 μL) and total cell numbers in each well were determined by reading absorbance at 595 nm after Crystal Violet staining (50 μL of a 2% solution in PBS) and elution by 1% SDS solution (100 μL) in distilled water. The measured OD 450-655 readings were corrected for cell number by dividing with the OD595 reading in each well. The inhibition of ICAM-1 expression was calculated at each concentration of test compound by comparison with vehicle control.

For the molecule `Cc1ccc(-n2nc(C(C)(C)C)cc2NC(=O)Nc2ccc(Oc3ccnc(Nc4ccccc4)n3)c3ccccc23)cc1` [Example 1, 1-(3-(tert-Butyl)-1-(p-tolyl)-1H-pyrazol-5-yl)-3-(4-(2-(phenylamino)pyrimidin-4-yloxy)naphthalen-1-yl)urea], in the experiment with ICAM-1 [1], the IC50 is 0.023 nM.
As for `Cc1ccc(-n2nc(C(C)(C)C)cc2NC(=O)Nc2ccc(Oc3ccnc(Nc4cccc(O)c4)n3)c3ccccc23)cc1` [Example 2, 1-(3-(tert-Butyl)-1-(p-tolyl)-1H-pyrazol-5-yl)-3-(4-((2-((3-hydroxyphenyl)amino)pyrimidin-4-yl)oxy)naphthalen-1-yl)urea], the IC50 with ICAM-1 [2] was found to be 4.3 nM.
